Reference: patent publication US11180474B2 (BRISTOL-MYERS SQUIBB COMPANY, priority 2016, dated 2021)

Columns and labels:
human TLR9 = biological target: T1, human TLR9 (Homo sapiens, UniProt Q9NR96); assay: TLR9 inhibition reporter assay (HEK-Blue cells, SEAP reporter, ODN2006 stimulation); assay type: cell-based; conditions: HEK-Blue cells overexpressing human TLR9, ODN2006 5 nM
T1 construct: host or cells: HEK-Blue cells
T1 sequence (Q9NR96 26-1032): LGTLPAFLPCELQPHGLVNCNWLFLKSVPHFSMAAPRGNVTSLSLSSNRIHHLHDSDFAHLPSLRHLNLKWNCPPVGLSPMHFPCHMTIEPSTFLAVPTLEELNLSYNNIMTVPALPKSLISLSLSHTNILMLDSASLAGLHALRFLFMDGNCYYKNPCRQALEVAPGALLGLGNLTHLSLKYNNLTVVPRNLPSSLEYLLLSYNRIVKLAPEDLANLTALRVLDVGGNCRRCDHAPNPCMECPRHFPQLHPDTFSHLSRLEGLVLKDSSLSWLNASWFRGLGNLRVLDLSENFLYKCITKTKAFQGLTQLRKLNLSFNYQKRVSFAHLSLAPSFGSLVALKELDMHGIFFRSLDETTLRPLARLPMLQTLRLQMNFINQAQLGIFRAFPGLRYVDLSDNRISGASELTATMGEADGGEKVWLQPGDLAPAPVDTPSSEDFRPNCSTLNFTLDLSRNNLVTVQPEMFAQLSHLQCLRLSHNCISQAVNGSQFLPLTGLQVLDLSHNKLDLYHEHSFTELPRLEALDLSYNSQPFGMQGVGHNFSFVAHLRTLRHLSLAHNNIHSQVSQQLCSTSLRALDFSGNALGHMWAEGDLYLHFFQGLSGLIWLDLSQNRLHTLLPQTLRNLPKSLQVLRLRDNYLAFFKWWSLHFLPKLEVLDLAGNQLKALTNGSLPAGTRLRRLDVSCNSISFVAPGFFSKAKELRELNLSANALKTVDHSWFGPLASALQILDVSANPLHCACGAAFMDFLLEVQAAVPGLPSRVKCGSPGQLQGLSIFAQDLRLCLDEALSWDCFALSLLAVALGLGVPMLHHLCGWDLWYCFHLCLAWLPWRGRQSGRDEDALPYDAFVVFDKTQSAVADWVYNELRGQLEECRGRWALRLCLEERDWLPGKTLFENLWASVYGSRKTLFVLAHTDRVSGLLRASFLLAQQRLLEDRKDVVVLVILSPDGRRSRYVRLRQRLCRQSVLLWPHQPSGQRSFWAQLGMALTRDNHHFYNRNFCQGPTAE
Procedure, shortened: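 Agonists used: gardiquimod 7.5 μM (TLR7), R848 15.9 μM (TLR8), ODN2006 5 nM (TLR9), added after 30 min room-temperature compound pre-treatment (0.05 nM–50 μM) of receptor-overexpressing HEK-Blue cells. SEAP reporter (NF-κB/AP-1 driven) read after 22 h at 37 °C; inhibition scaled between agonist+DMSO and reference-inhibitor wells.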

TLR9 = assay: In vivo mouse TLR9 PD model (CpG-ODN challenge, plasma IL-6); conditions: oral
Description: In Vivo Mouse TLR7 and TLR9 PD Model:
Adult male C57BL/6 mice were used for the experiments. Mice (7 to 10 per group) were randomized into different treatment groups based on body weight. Mice from the respective treatment groups were administered orally with vehicle or test compound. Thirty min after the oral administration of vehicle or test compound, mice were challenged with intraperitoneal injection of gardiquimod for TLR7 PD model and CpG-ODN for TLR9 PD model. Ninety minutes after gardiquimod injection and 120 minutes after CpG-ODN injection, mice were bled under isoflurane anaesthesia and plasma IL-6 level was estimated by using commercially available ELISA kit (BD Biosciences). At the end of experiment, mean cytokine data was plotted and one way ANOVA with Dunnett's test was performed to calculate the significance of test compound treated group vs. vehicle control group. Percent inhibition of cytokine induction was calculated for test compound treated group vs vehicle control group.

## CNCCN1CCC(c2ccc3[nH]c(-c4ccc(OC)c(OC)c4)c(C(C)C)c3c2)CC1 [Example 196, 2-(4-(2-(3,4-dimethoxyphenyl)-3-isopropyl-1H-indol-5-yl)piperidin-1-yl)-N-methylethan-1-amine]
Human TLR9
  IC50: 521 nM
TLR9; dose 1 mg/kg
  % inhibition of IL6: 47%
TLR9; dose 3 mg/kg
  % inhibition of IL6: 75%
TLR9; dose 10 mg/kg
  % inhibition of IL6: 83%
TLR9; dose 30 mg/kg
  % inhibition of IL6: 88%
TLR9; dose 100 mg/kg
  % inhibition of IL6: 62%
